Laboratory results: the supplement of paper PMC8671470

Tests used:
Settings in all cases: 72 h
BV-173 [1] = tested on: BV-173
Method in brief: (§1)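 In 384-well plates holding acoustically pre-printed compounds at five tenfold doses from 1 to 10,000 nM, in duplicate, fifteen myeloid leukaemia cell lines were grown in RPMI 1640 for 72 h at 37 °C with 5% CO2. Luminescent ATP viability was scaled between vehicle and a positive control at 10 µM. The IC50 was then taken from log-logistic dose–response fits with four parameters.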

HEL [2] = tested on: HEL
Method in brief: as §1

HL-60 [3] = tested on: HL-60
Method in brief: as §1

K-562 [4] = tested on: K-562
Method in brief: as §1

KCL-22 [5] = tested on: KCL-22
Method in brief: as §1

KG-1 = tested on: KG-1
Method in brief: as §1

KU-812 [6] = tested on: KU-812
Method in brief: as §1

LAMA-84 [7] = tested on: LAMA-84
Method in brief: as §1

ML-2 [8] = tested on: ML-2
Method in brief: as §1

MOLM-13 = tested on: MOLM-13
Method in brief: as §1

MV4-11 = tested on: MV4-11
Method in brief: as §1

Mono-Mac-6 [9] = tested on: Mono-Mac-6
Method in brief: as §1

NOMO-1 [10] = tested on: NOMO-1
Method in brief: as §1

SHI-1 [11] = tested on: SHI-1
Method in brief: as §1

THP-1 = tested on: THP-1
Method in brief: as §1

HL-60 [12] = test: cell viability (% survival relative to DMSO control); higher = less cytotoxic
Method in brief: (§2)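 HL-60 cells in RPMI 1640 with 10% FBS were rescreened against the full library on 384-well plates at five tenfold concentrations, 1–10,000 nM, in duplicate. Each screen was run with DMSO or 100 nM of one of three metabolic inhibitors, for 72 h at 37 °C, 5% CO2. Viability was read by CellTiter-Glo and normalised to DMSO and 10 μM proteasome-inhibitor wells. Where given, area under the curve came from four-parameter log-logistic fits (drc, PharmacoGx).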

BV-173 [13] = test: cell viability (% survival relative to DMSO control, bortezomib = 0%); higher = less cytotoxic
Method in brief: (§3)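 Percent survival is reported as the mean of duplicate wells. Cells from 10 AML and 5 CML lines were plated in 384-well plates containing compounds at 1, 10, 100, 1000 or 10000 nM and kept for 72 h at 37 °C in 5% CO2. Readout used CellTiter-Glo luminescence, scaled so that vehicle equals 100% and a 10 µM positive control equals 0%.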

HEL [14] = test: as above
Method in brief: as §3

HL-60 [15] = test: as above
Method in brief: as §3

K-562 [16] = test: as above
Method in brief: as §3

KCL-22 [17] = test: as above
Method in brief: as §3

KU-812 [18] = test: as above
Method in brief: as §3

LAMA-84 [19] = test: as above
Method in brief: as §3

ML-2 [20] = test: as above
Method in brief: as §3

Mono-Mac-6 [21] = test: as above
Method in brief: as §3

NOMO-1 [22] = test: as above
Method in brief: as §3

SHI-1 [23] = test: as above
Method in brief: as §3

HL-60 [24] = test: area under dose-response curve (viability, 1 nM-10 uM) (fraction (0-1)); higher = more sensitive
Method in brief: as §2

COc1ccc(-c2ccccc2)cc1NS(=O)(=O)c1cc(Cl)cc(Cl)c1O
Settings	IC50 (cell viability) [µM]
BV-173 [1]	> 10
HEL [2]	> 10
HL-60 [3]	> 10
K-562 [4]	> 10
KCL-22 [5]	> 10
KG-1	> 10
KU-812 [6]	> 10
LAMA-84 [7]	> 10
ML-2 [8]	> 10
MOLM-13	> 10
MV4-11	> 10
Mono-Mac-6 [9]	> 10
NOMO-1 [10]	> 10
SHI-1 [11]	> 10
THP-1	> 10

cell viability [%], HL-60 [12]
Settings	0.001 µM	0.01 µM	0.1 µM	1 µM	10 µM
co-treatment: AZD3965 100 nM	99.4	102	99	96	99.06
co-treatment: DMSO vehicle	96.3	104.5	109	103	99
co-treatment: GSK2194069 100 nM	93.5	99	109	92.7	98.5
co-treatment: pictilisib 100 nM	103	104	114	100	93.2

Settings	area under dose-response curve, co-treatment: AZD3965 100 nM	area under dose-response curve, co-treatment: DMSO vehicle	area under dose-response curve, co-treatment: GSK2194069 100 nM	area under dose-response curve, co-treatment: pictilisib 100 nM	cell viability, 1 nM [%]	cell viability, 10 nM [%]	cell viability, 100 nM [%]	cell viability, 1000 nM [%]	cell viability, 10000 nM [%]
BV-173 [13]	–	–	–	–	98.9	90	119	87.1	94.6
HEL [14]	–	–	–	–	106	87.4	115	74	95.3
HL-60 [15]	–	–	–	–	88.3	77.6	100	25.6	95.9
HL-60 [24]	< 0.0301	< 0.0301	< 0.0301	< 0.0301	–	–	–	–	–
K-562 [16]	–	–	–	–	86.8	105	126	87.9	86.9
KCL-22 [17]	–	–	–	–	90	92.8	108	93.7	97.7
KU-812 [18]	–	–	–	–	98.2	84.4	105	95.6	104
LAMA-84 [19]	–	–	–	–	102	95.1	113	103	99
ML-2 [20]	–	–	–	–	99.8	102	102	84.5	97.7
Mono-Mac-6 [21]	–	–	–	–	102	86.8	97.8	90.2	90.7
NOMO-1 [22]	–	–	–	–	102	96	107	92.7	99
SHI-1 [23]	–	–	–	–	95.9	101	105	82.2	113
